From publication PMC5244392, “Interspecies cathelicidin comparison reveals divergence in antimicrobial activity, TLR modulation, chemokine induction and regulation of phagocytosis” (Scientific Reports, 2017) come the findings set out here.

One test concerns RAW264.7 cells. Nature of the test: Phagocytosis assay with fluorescent latex beads. The class given is cell-based, murine. Conditions: 30 min; for Effect on bead uptake (phagocytosis), in words / Summary class, phagocytosis: latex beads 10 per cell; for Effect on bead uptake (phagocytosis), in words: peptide 0.31, 1.25 and 5 μM; for Summary class, phagocytosis: 37 °C, MFI corrected for 0 °C, peptide 0.31-5 μM, − = no significant effect, N = 3. As to the method: Red fluorescent (λex 575 nm and λem 610 nm) carboxylate-modified polystyrene latex beads (0.5 μm; Sigma Aldrich, St. Louis, MO, USA) were washed three times with PBS and resuspended in culture medium. Peptide dilutions were prepared in culture medium and added to RAW264.7 cells, directly followed by the latex beads (ratio 10 beads to 1 cell). Cells were incubated for 30 minutes at 37 °C, 5% CO2 (energy-dependent uptake) or 0 °C (non-specific adherence), after which cells were washed extensively with ice-cold PBS supplemented with 1% FCS and 0.01% NaN3, to remove all free beads. After washing, cells were scraped and resuspended in FACS buffer (PBS supplemented with 0.5% BSA). Samples were measured with the BD FACSCanto II flow cytometer (BD Biosciences, San Jose, CA, USA) and analyzed with FlowJo software (Ashland, OR, USA). Mean fluorescence intensity (MFI), corrected for non-specific adherence, was used as an indicator for the number of beads taken up.
While the above-described functions of cathelicidins are well-known, relatively little is known about the influence of cathelicidins on phagocytosis. Therefore, RAW264.7 cells were incubated with fluorescent beads to study the effect of cathelicidins on phagocytosis. The uptake was corrected for fluorescence measured after incubation on ice instead of 37 °C, which inhibits the active process of phagocytosis. After 30 minutes, 90% of the RAW264.7 cells took up latex beads (Fig. 4A). Histograms exemplify changes in bead phagocytosis with different concentrations of K9CATH (Fig. 4B), eCATH-2 (Fig. 4C) and chCATH-3 (Fig. 4D). Effect of all cathelicidins are depicted by the average mean fluorescence intensity (MFI) in Fig. 4E.
Figure 4 Effects of cathelicidins on phagocytosis by RAW264.7 cells. RAW264.7 cells were incubated with cathelicidins (0.31 μM, 1.25 μM, and 5 μM) and red fluorescent latex beads (10 beads to 1 cell) at 37 °C (energy dependent uptake) or on ice (non-specific adherence) for 30 minutes. Histograms show control (no peptide present) bead uptake at 37 °C (gray, filled) and 0 °C (black line) (A), or uptake in presence of different concentrations of indicated cathelicidins (B–D); 0 μM (red, filled), 0.31 μM (black line), 1.25 μM (green line) or 5 μM (blue line). Uptake was quantified by determining the MFI after correction for 0 °C control (E). Results are presented as average +/− SEM (N = 3). Statistical differences were determined by Two-way ANOVA with Bonferroni post-hoc test.

Test [1] relates to LPS-induced TLR-4 activation of RAW264.7 cells. Nature of the test: LPS neutralization: LPS-induced TNFα release. Conditions: peptide 0.08-20 μM; for Summary class, TLR activation LPS: 100 ng/ml LPS E. coli O111:B4, TNFα after 2 h, − = no significant effect, N = 3; for LPS neutralization / inhibition of LPS-induced activation, in words: 100 ng/ml LPS, 2 h, TNFα. The test is classed as cell-based, murine. The source says: TLR ligands: LPS Escherichia coli (E. coli) O111:B4 (TLR-4), LTA S. aureus (TLR-2), and ODN-1826 (TLR-9) were obtained from Invivogen (Toulouse, France). Chicken CATH-2 (chCATH-2) and PMAP-36 were synthesized by Fmoc-chemistry at China Peptides (CPC scientific, Sunnycale, CA) and all other cathelicidins were synthesized by Fmoc-chemistry at the Academic Centre for Dentistry Amsterdam (Amsterdam, The Netherlands) (Table 1). Purity of all peptides was >95% as analyzed by HPLC-MS.
RAW264.7 cells were stimulated with 100 ng/ml LPS E. coli O111:B4, 1 μg/ml LTA S. aureus or 2.5 nM ODN-1826 in the presence of various concentrations of different cathelicidins. TNFα release was determined after 2 h for LPS and LTA stimulation and 24 h for ODN-1826 stimulation. CXCL10, CCL5 and IL-10 release were all determined after 24 h stimulation. As a control, RAW264.7 cells were stimulated for 2 h with 10^6 CFU/ml live or heat-killed (70 °C, 0.5 h) E. coli O78, followed by a double wash with cell culture medium and subsequent 22 h incubation in cell culture medium supplemented with 250 μg/ml gentamicin.
ELISA Duoset kits for mouse TNFα, CCL5, CXCL10 and IL-10 were obtained from R&D systems (Minneapolis, MN, USA) and ELISAs were performed according to the manufacturer’s protocol. Samples were stored at −20 °C until analysis and, if needed, diluted in 1% BSA in PBS, pH 7.4. Absorbance at 450 nm was determined in a FLUOstar Omega microplate reader (BMG Labtech GmbH) and corrected for absorbance at 570 nm. Results were analyzed with MARS data analysis software (BMG Labtech GmbH).
RAW264.7 cells were stimulated for 2 h with 100 ng/ml LPS from E. coli O111:B4 in the presence of different cathelicidins at various concentrations to study the capability of LPS neutralization (Fig. 3A). […] Next, RAW264.7 cells were stimulated with 1 μg/ml S. aureus LTA for 2 h in the presence of various cathelicidin concentrations, to test LTA neutralization (Fig. 3B).
Figure 3 Effects of cathelicidins on TLR-2, -4, and -9 activation. LPS (100 ng/ml) (A), LTA (1 μg/ml) (B) or ODN-1826 (2.5 nM) (C) was mixed with different cathelicidins (0.08 μM, 0.31 μM, 1.25 μM, 5 μM, and 20 μM) before addition to the RAW264.7 cells. Supernatants were collected after 2 hours (A,B) or 24 hours (C) incubation and TNFα expression was measured. The dotted line represents the average cytokine release of control samples. Results are presented as average +/− SEM (N = 3). Statistical differences were determined by Two-way ANOVA with Bonferroni post-hoc test.

Turning to “KRRHWFPLSFQEFLEQLRRFRDQLPFP [eCATH-2, equine CATH-2, 27 residues, charge +4]”, in the test on RAW264.7 cells (latex beads, not significant), the “Increase of bead uptake” value is listed as ~50%.
As for “RVKRFWPLVPVAINTVAAGINLYKAIRRK [chCATH-3, chicken CATH-3, 29 residues, charge +7]”, in test [1], the “Summary class, TLR activation LPS” value was “↓↓ (↓↓ = significant decrease ≤5 μM)” and the “LPS neutralization / inhibition of LPS-induced activation, in words” value (shortened to “LPS neutralization / inhibition”) is “significantly inhibited”. The “Effect on bead uptake (phagocytosis), in words” value (shortened to “Effect on bead uptake”) in the test with RAW264.7 cells is listed as “did not affect bead uptake”.
Turning to “RFGRFLRKIRRFRPKVTITIQGSARF-NH2 [chCATH-2, chicken CATH-2, C-terminal amide, 26 residues, charge +9]”, in test [1], the “Summary class, TLR activation LPS” value was “↓↓ (↓↓ = significant decrease ≤5 μM)” and the “LPS neutralization / inhibition” value is listed as “potently inhibited”. In the test on RAW264.7 cells, the “Summary class, phagocytosis” value is recorded as “↓↓ (↓↓ = significant decrease ≤5 μM)” and the “Effect on bead uptake” value is given as “reduced bead-uptake in a dose-dependent manner”.
With “Ac-GRFRRLRKKTRKRLKKIGKVLKWIPPIVGSIPLGCG [PMAP-36, porcine α-helical cathelicidin, N-acetylated, 36 residues, charge +13]”, the “Summary class, TLR activation LPS” value in test [1] is listed as “↓↓ (↓↓ = significant decrease ≤5 μM)”. In the test on RAW264.7 cells, the “Summary class, phagocytosis” value was “↓↓ (↓↓ = significant decrease ≤5 μM)” and the “Effect on bead uptake” value is recorded as “only reduced phagocytosis at 5 μM”.
Turning to “GLLRKGGEKIGEKLKKIGQKIKNFFQKLVPQPEQ [CRAMP, murine cathelicidin, 34 residues, charge +6]”, in test [1], the “Summary class, TLR activation LPS” value is “↓↓ (↓↓ = significant decrease ≤5 μM)”. Besides, in the test on RAW264.7 cells, the “Summary class, phagocytosis” value is recorded as “↓↓ (↓↓ = significant decrease ≤5 μM)” and the “Effect on bead uptake” value is given as “reduced bead-uptake in a dose-dependent manner”.
Consider “RIIDLLWRVRRPQKPKFVTVWVR [PMAP-23, porcine α-helical cathelicidin, 23 residues, charge +6]”, for which, in test [1], the “LPS neutralization / inhibition” value was “None of the equine cathelicidins nor PMAP-23 and PR-39 were capable to neutralize LPS”. Moreover, in the test with RAW264.7 cells, the “Summary class, phagocytosis” value is given as “↓↓ (↓↓ = significant decrease ≤5 μM)” and the “Effect on bead uptake” value is “reduced bead-uptake in a dose-dependent manner”.
On to “RLKELITTGGQKIGEKIRRIGQRIKDFFKNLQPREEKS [Peptide K9CATH, dog cathelicidin, 38 residues, charge +6]”, for which, in test [1], the “Summary class, TLR activation LPS” value is reported as “↓↓ (↓↓ = significant decrease ≤5 μM)” and the “LPS neutralization / inhibition” value was “significantly inhibited”. In addition, in the test with RAW264.7 cells, the “Summary class, phagocytosis” value is “↓↓ (↓↓ = significant decrease ≤5 μM)” and the “Effect on bead uptake” value is on record as “reduced bead-uptake in a dose-dependent manner”.
For “RRRPRPPYLPRPRPPPFFPPRLPPRIPPGFPPRFPPRFP [PR-39, porcine proline-rich cathelicidin forming a polyproline helix, 39 residues, charge +10]”, in test [1], the “LPS neutralization / inhibition” value is “None of the equine cathelicidins nor PMAP-23 and PR-39 were capable to neutralize LPS”. Besides, the “Effect on bead uptake” value in the test on RAW264.7 cells was “did not affect bead uptake”.
